Measured values reported in ChEMBL document CHEMBL5036315, “Synthesis, Structure-Activity Relationships, and In Vivo Evaluation of Novel Tetrahydropyran-Based Thiodisaccharide Mimics as Galectin-3 Inhibitors” (J Med Chem, 2021).
Values after ≈ are worked out from the molar mass of the structure shown.

Experiments:
[1] = Aqueous solubility of the compound at pH 1; format: physicochemical; conditions: aqueous solution
[2] = AUC in C57BL/6 mouse at 30 mg/kg, po measured upto 24 hrs; format: ADME, organism-based; design: route oral, dose 30 mg/kg, time <=24; conditions: in vivo
[3] = Half life in C57BL/6 mouse at 2 mg/kg, iv measured upto 24 hrs; format: ADME, organism-based; conditions: in vivo
[4] = Metabolic stability in mouse liver microsomes assessed as compound remaining at 0.5 uM incubated for10 mins in presence of NADPH by LC-MS/MS analysis; format: ADME, Microsome; conditions: read-out: Stability
[5] = Clearance in C57BL/6 mouse at 2 mg/kg, iv measured upto 24 hrs; format: ADME, organism-based; conditions: in vivo
[6] = Volume of distribution at steady state in C57BL/6 mouse at 2 mg/kg, iv measured upto 24 hrs; format: ADME, organism-based; conditions: in vivo
[7] = Cmax in C57BL/6 mouse at 30 mg/kg, po measured upto 24 hrs; format: ADME, organism-based; design: route oral, dose 30 mg/kg, time <=24; conditions: in vivo
[8] = Oral bioavailability in C57BL/6 mouse at 30 mg/kg measured upto 24 hrs; format: ADME, organism-based; conditions: in vivo
[9] = Metabolic stability in human liver microsomes assessed as compound remaining at 0.5 uM incubated for10 mins in presence of NADPH by LC-MS/MS analysis; format: ADME, Microsome; conditions: read-out: Stability
[10] = Aqueous solubility of the compound at pH 7.4; format: physicochemical; conditions: aqueous solution
[11] = AUC in C57BL/6 mouse at 30 mg/kg, sc measured upto 24 hrs; format: ADME, organism-based; design: route subcutaneous, dose 30 mg/kg, time <=24; conditions: in vivo
[12] = Cmax in C57BL/6 mouse at 30 mg/kg, sc measured upto 24 hrs; format: ADME, organism-based; design: route subcutaneous, dose 30 mg/kg, time <=24; conditions: in vivo
[13] = Bioavailability in C57BL/6 mouse at 30 mg/kg, sc measured upto 24 hrs; format: ADME, organism-based; conditions: in vivo

| solubility [1] [µg/mL] | AUC at 24 h [2] [µM·h] | half-life [3] [h] | remaining at 10 min, 0.5 µM [4] [%] | clearance [5] [mL/min/kg] | Vss [6] [L/kg] | Cmax [7] [nM] | bioavailability [8] [%] | remaining at 10 min, 0.5 µM [9] [%] | solubility [10] [µg/mL] | AUC ([11]; mouse, 24 h) [µM·h] | Cmax [12] [nM] | F ([13]; mouse, 30 mg/kg, 24 h) [%] | AUC at 24 h ([11]; C57BL/6, mouse) [µM·h] | bioavailability ([13]; C57BL/6, mouse) [%] | Structure (SMILES) |
| --- | --- | --- | --- | --- | --- | --- | --- | --- | --- | --- | --- | --- | --- | --- | --- |
| < 1 |  |  |  |  |  |  |  |  |  |  |  |  |  |  | CO[C@@H]1[C@@H](n2cc(-c3cc(F)c(F)c(F)c3)nn2)[C@@H](O)[C@@H](CO)O[C@H]1S[C@@H]1COC[C@H](n2cc(-c3nccs3)nn2)[C@H]1O |
|  | 0.3 | 1.9 | 72 | 59 | 3.6 | 200 | 2 | 78 |  |  |  |  |  |  | CO[C@@H]1[C@@H](n2cc(-c3cc(F)c(F)c(F)c3)nn2)[C@@H](O)[C@@H](CO)O[C@H]1S[C@@H]1COC[C@H](n2cc(-c3cccc(F)c3)nn2)[C@H]1O |
| < 1 |  |  |  |  |  |  |  |  |  |  |  |  |  |  | COc1ncc(-c2cn([C@H]3COC[C@@H](S[C@@H]4O[C@H](CO)[C@H](O)[C@H](n5cc(-c6cc(F)c(F)c(F)c6)nn5)[C@H]4OC)[C@@H]3O)nn2)cn1 |
| 6 (≈ 9.42 µM) |  | 1.4 | 89 |  | 2.4 |  |  | 45 | 3 (≈ 4.71 µM) | 49 | 5900 | 100 |  |  | CO[C@@H]1[C@@H](n2cc(-c3cc(F)c(F)c(F)c3)nn2)[C@@H](O)[C@@H](CO)O[C@H]1S[C@@H]1COC[C@H](n2cc(-c3cncnc3)nn2)[C@H]1O |
|  | 0.04 | 1.2 | 92 | 69 | 1.6 | 10 | 0.3 | 98 |  |  |  |  |  |  | CO[C@@H]1[C@@H](n2cc(-c3cc(F)c(F)c(F)c3)nn2)[C@@H](O)[C@@H](CO)O[C@H]1S[C@@H]1COC[C@H](n2cc(-c3cccc(O)c3)nn2)[C@H]1O |
| < 1 |  |  |  |  |  |  |  |  | < 1 |  |  |  |  |  | COc1cnc(-c2cn([C@H]3COC[C@@H](S[C@@H]4O[C@H](CO)[C@H](O)[C@H](n5cc(-c6cc(F)c(F)c(F)c6)nn5)[C@H]4OC)[C@@H]3O)nn2)nc1 |
|  | 0.3 | 1.6 |  | 30 | 0.7 | 300 | 1 |  |  |  | 10300 |  | 17 | 66 | OC[C@H]1O[C@@H](S[C@@H]2O[C@H](CO)[C@H](O)[C@H](n3cc(-c4cccc(F)c4)nn3)[C@H]2O)[C@H](O)[C@@H](n2cc(-c3cccc(F)c3)nn2)[C@H]1O [OLITIGALTIN] |
